Series [1] in a line: Whole-body PET-CT biodistribution and dose estimation in rats. It counts as in vivo. The text has this: Six rats (3 male, 19.9 ± 6.2 MBq; and 3 female, 20.8 ± 3.2 MBq) were imaged using PET-CT for whole-body biodistribution of radioactivity and dose estimation using standard mass and density of the organs for adult male and female subjects, respectively (Figure S17). […] The estimated whole-body effective dose was 21.3 ± 3.1 and 22.5 ± 0.9 µSv/MBq for adult male and female models, respectively, with the highest absorbed dose of 50.6 ± 16.9 µGy/MBq in the large intestine.
A total of 8 healthy adult rats (Sprague-Dawley, 384 ± 56 g; 4/4 M/F) underwent PET imaging following bolus injection of [^18F]OXD-2314 (20.5 ± 4.1 MBq), with two animals (M/F) scanned for 120 min with the head in the centre of PET field-of-view (FOV) whereas six animals (3/3 M/F) scanned for 180 min at three bed positions (head-to-bottom) with 15 frames (2×15 s, 2×30 s, 2×60 s, 1×120 s, 1×180 s, 2×240 s, 2×300 s, and 3×600 s) to cover the whole body. PET images were acquired using a nanoScan™ PET/CT scanner (Mediso, Budapest, Hungary) with rats anesthetized under isoflurane in O2 (1.5–2%, 1 L/min) throughout the imaging session and monitored closely for body temperature and respiration rate. A scout CT was acquired for PET FOV positioning, then a material map CT image was acquired for PET corrections of attenuation and scatter and for PET/CT co-registration to define anatomic brain regions of interest. For the brain scans, aacquired list-mode data were sorted into thirty-nine three-dimensional (3D) (3×5 s, 3×15 s, 3×20 s, 7×60 s, 17×180 s, and 6×600 s), true sinograms (ring difference 84). The 3D sinograms were converted in 2D sinograms using Fourier rebinning with corrections for detector geometry, efficiencies, attenuation, and scatter before image reconstruction using 2D filtered back projection with a Hann filter at a cut-off of 0.50 cm^−1. The analytical reconstruction was also used for dose assessment of the multi-frame whole-body images. All data were corrected for dead time and were decay-corrected to the start of acquisition. Iteratively reconstructed images with the manufacturer’s proprietary 3D algorithm (6 subsets, 4 iterations) were used for PET and CT co-registration, for co-registration of subject’s CT with a stereotactic MR atlas of brain[51], for organ region-of-interest (ROI) placement, and for presentation in figures. Filtered back projection images were used to extract regional brain and organ time-activity curves (TACs) with VivoQuant® 2020 software (Invicro, Needham, MA, USA) and Amide (1.0.4)[52]. The selected organs (a total of 12) include brain, lungs, heart wall, heart content, liver, stomach content, spleen, kidneys, small intestine content, upper large intestine content, lower large intestine content, and urinary bladder content. Normalized cumulated activities of each organ were calculated using trapezoidal integration of the area under the TACs plus extrapolation of the TAC to infinity with natural decay of the radiotracer. Dose assessment was performed with OLINDA/EXM 1.1 to calculate the effective dose and the effective dose equivalent. SUV were calculated by normalizing regional radioactivity for injected radioactivity and body weight.

Series [2] in a line: logD7.4 by shake-flask method. It counts as physicochemical. The conditions noted are these: pH 7.4. The text has this:
[^18F]OXD-2314 was radiolabeled by an analogous method previously reported for [^18F]OXD-2115 with minor modifications (Fig. 2)[30]. [^18F]OXD-2314 was reliably produced with high radiochemical purity (RCP) ranging from 95-98%, molar activity (Am) of […] (n = 4), and radiochemical yield (RCY) of 8.7 ± 3.7% (not decay-corrected, ndc) in the laboratories in Toronto and was replicated with Am of 349 ± 144 GBq/μmol (n = 4) and RCY of 2.3 ± 1.1% (ndc) in the laboratories in Pittsburgh. The logD7.4 value of [^18F]OXD-2314 was measured as 3.11 ± 0.04 using the shake-flask method.

The target of series [3] is T1, 4R-tau aggregates in CBD tissue (Homo sapiens, UniProt P10636).
T1 construct: tissue Neurodegenerative Disease Brain Bank at UCSF; host or cells: human CBD brain, middle frontal gyrus (pool of three) or putamen (one subject)
Put plainly: Competition binding vs [^3H]OXD-2115 in CBD tissue. The conditions noted are these: vs [^3H]OXD-2115, CBD tissue, n = 1. As to the method:
(§1) Fresh frozen, autopsy-confirmed human PD anterior cingulate cortex brain tissue blocks (1 cm^3) were obtained from Dr. Thomas Beach at Banner/Sun Health AZ with funding from the Michael J. Fox Foundation and contained frequent α-synuclein aggregates and no other detectable aggregated amyloid species. The frozen tissue blocks were prepared for the binding assays as previously described[47],[48], except that equal quantities of the homogenates of three AD brains (AD1-AD3, Table S1) were pooled, as were homogenates from three PSP brains (PSP1-PSP3), three CBD brains (CBD1-CBD3), three Pick’s brains (PiD1-PiD3), and 4 PD brains (PD1-PD4) in order to help minimize the inter-subject variability within the different neuropathological groups. Individual subcortical brain tissues from a PSP subject (PSP4) and a CBD subject (CBD4), as well as with the middle frontal cortex of a control subject, were prepared for the binding assays as previously described[47],[48].
(§2) The equilibrium inhibition constant (Ki) values of the unlabeled compounds were determined versus tritium-labeled radioligands using published methods.

The target of series [4] is T2, 4R-tau aggregates in PSP tissue (Homo sapiens, UniProt P10636).
T2 construct: tissue Neurodegenerative Disease Brain Bank at UCSF
Briefly: Competition binding vs [^3H]OXD-2314 in PSP tissue. As to the method: as §1, §2

The target in series [5] is T3, 3R-tau aggregates in PiD tissue (Homo sapiens, UniProt P10636).
T3 construct: tissue Neurodegenerative Disease Brain Bank at UCSF; host or cells: human PiD brain, middle frontal gyrus, pooled homogenate of three brains
Put plainly: Competition binding vs [^3H]OXD-2314 in PiD tissue. As to the method:
as §1, §2

Series [6] deals with T1, 4R-tau aggregates in CBD tissue. Put plainly: Competition binding vs [^3H]OXD-2314 in CBD tissue. As to the method: as §1, §2

As a reminder, the logD is the decadic logarithm of the distribution of all forms, ionised or not, between an organic phase and buffer at a given pH. A low value points to a more hydrophilic compound. By Ki is commonly meant the equilibrium dissociation constant of an inhibitor or competing ligand from its target. A low value points to higher affinity.

T1 sequence (P10636 1-441 isoform P10636-8): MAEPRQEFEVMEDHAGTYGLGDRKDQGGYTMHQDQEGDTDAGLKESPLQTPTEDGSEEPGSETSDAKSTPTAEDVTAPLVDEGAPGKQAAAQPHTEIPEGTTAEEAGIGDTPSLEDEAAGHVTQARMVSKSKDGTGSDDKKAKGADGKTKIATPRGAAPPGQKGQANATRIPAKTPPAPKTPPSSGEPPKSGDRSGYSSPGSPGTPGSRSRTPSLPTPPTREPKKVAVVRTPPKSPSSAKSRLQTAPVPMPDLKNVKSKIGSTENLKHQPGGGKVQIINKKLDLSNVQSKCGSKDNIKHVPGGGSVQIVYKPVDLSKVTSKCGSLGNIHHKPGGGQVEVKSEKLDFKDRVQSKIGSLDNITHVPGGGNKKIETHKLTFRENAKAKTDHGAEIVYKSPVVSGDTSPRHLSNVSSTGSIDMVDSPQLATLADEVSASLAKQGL
T3 sequence (P10636 1-410 isoform P10636-5): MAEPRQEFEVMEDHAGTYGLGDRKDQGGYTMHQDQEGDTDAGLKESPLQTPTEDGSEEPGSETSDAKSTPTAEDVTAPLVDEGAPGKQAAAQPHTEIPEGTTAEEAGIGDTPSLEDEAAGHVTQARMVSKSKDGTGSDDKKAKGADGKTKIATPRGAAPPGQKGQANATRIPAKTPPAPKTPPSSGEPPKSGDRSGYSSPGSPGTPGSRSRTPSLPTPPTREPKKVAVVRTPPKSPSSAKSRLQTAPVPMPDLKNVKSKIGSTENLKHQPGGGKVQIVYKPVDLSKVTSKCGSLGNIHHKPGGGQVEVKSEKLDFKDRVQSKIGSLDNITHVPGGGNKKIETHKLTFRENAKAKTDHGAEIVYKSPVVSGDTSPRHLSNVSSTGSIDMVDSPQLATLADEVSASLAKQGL
T2 sequence (P10636 1-441 isoform P10636-8): as the sequence (P10636 1-441 isoform P10636-8) above

In the case of `CO[C@H]1CCCN(c2ccc(-c3cc4cc(O)ccc4[nH]3)c([18F])n2)C1` [[^18F]OXD-2314], the “estimated whole-body effective dose” value in series [1] (adult female model, from rat data) is listed as 22.5 ± 0.9 µSv/MBq. Also, the “estimated whole-body effective dose” value in series [1] (adult male model, from rat data) is listed as 21.3 ± 3.1 µSv/MBq. Further, the “highest absorbed dose, large intestine” value in series [1] (from rat data) was 50.6 ± 16.9 µGy/MBq. Moreover, in series [1] (rats, n = 6), the “uptake of radioactivity (normalized cumulated activity), large intestines” value is 0.067 ± 0.032 MBqOrgan⋅hr/MBqInjected; the “uptake of radioactivity (normalized cumulated activity), liver” value is listed as 0.147 ± 0.023 MBqOrgan⋅hr/MBqInjected; the “uptake of radioactivity (normalized cumulated activity), small intestine” value is 0.075 ± 0.019 MBqOrgan⋅hr/MBqInjected. The logD in series [2] amounted to 3.11 ± 0.04.

Take `COC1CCCN(c2ccc(-c3cc4cc(O)ccc4[nH]3)c(F)n2)C1` (centres unmarked) [OXD-2314, 2-(2-fluoro-6-(3-methoxypiperidin-1-yl)pyridin-3-yl)-1H-indol-5-ol]: the Ki in series [3] stood at 4.4 nM; in series [4], 5.8 ± 0.2 nM; in series [5] it was 5.5 ± 0.5 nM; in series [6], 6.5 ± 0.4 nM.

(Values after publication PMC11178805, “Ligand-based design of [^18F]OXD-2314 for PET imaging in non-Alzheimer’s disease tauopathies” (Nature Communications, 2024).)
